Results on two compounds are retold here after ChEMBL document CHEMBL1201862, “PubChem BioAssay data set” (2004).

Common to all, as to test: NCI tumour cell line growth inhibition, 48 h
For assay [1], the system named is NCI-H226.
For assay [2], the system named is HCT-15.
Assay [3] concerns SR.
In assay [4] the test system is HL-60.
The subject of assay [5] is SF-268.
Assay [6] relates to SK-MEL-5.
For assay [7], the system named is A498.
Assay [8] has as its system HT-29.
In assay [9] the test system is U-251.
The subject of assay [10] is OVCAR-4.
The subject of assay [11] is T47D.
Assay [12] has as its system NCI-H460.
Assay [13] relates to DLD-1.
For assay [14], the system named is TK-10.
The test system of assay [15] is SK-OV-3.
Assay [16] has as its system SW-620.
The test system of assay [17] is HOP-92.
For assay [18], the system named is NCI/ADR-RES.
Assay [19] has as its system OVCAR-3.
Assay [20] concerns COLO 205.

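Grown in 96-well plates, cells were treated for 48 hours with each compound at five concentrations. Insufficient inhibition: endpoint recorded as highest concentration tested. GI50: concentration for 50% inhibition of growth.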 The source made the active and inactive calls. Cut-off read from the data, not from the text of the source: active = GI50 up to about 1.1 µM and inactive = higher. Bounds are passed on as bounds.

Regarding `CSc1nc(NC2OCC(OC(C)=O)C(OC(C)=O)C2OC(C)=O)c(/N=C\C=N\c2c(NC3OCC(OC(C)=O)C(OC(C)=O)C3OC(C)=O)nc(SC)[nH]c2=O)c(=O)[nH]1` (stereo not given), the GI50 is > 52.8 µM (inactive) in assay [1]; more than 100 µM in [2]; > 100 µM (inactive) in assay [3]; > 100 µM (inactive) in assay [4]; > 100 µM (inactive) in assay [5]; > 100 µM (inactive) in assay [6]. In addition, the GI50 is > 100 µM (inactive) in assay [7]; > 100 µM (inactive) in [8]; 56.4 µM (inactive) in assay [9]; > 100 µM (inactive) in assay [10]; 89.7 µM (inactive) in [11]; > 100 µM (inactive) in assay [12]. The GI50 is > 100 µM (inactive) in assay [13]; 56.9 µM (inactive) in [14]; 28.9 µM (inactive) in assay [15]; > 100 µM (inactive) in assay [16]; 35.5 µM (inactive) in assay [17]; 34.3 µM (inactive) in assay [18]. The GI50 in [19] and in assay [20] was > 100 µM (inactive) each time.

With `COc1ccc(/C=C(\Cl)c2ccc(OC)c(OC)c2)cc1OC`, the GI50 in assay [1] is > 100 µM (inactive); in assay [2] it was more than 100 µM; in [3], > 100 µM (inactive); in [4], > 100 µM (inactive); in assay [5], > 100 µM (inactive); in [6], > 100 µM (inactive). The GI50 in [7] is > 43.5 µM (inactive); in [8] it was > 100 µM (inactive); in [9], > 100 µM (inactive); in assay [10], > 67.6 µM (inactive); in assay [11], > 100 µM (inactive); in [12] it was > 100 µM (inactive). Also, the GI50 in [13] is > 100 µM (inactive); in assay [14], > 100 µM (inactive); in assay [15], > 100 µM (inactive); in assay [16] it was > 100 µM (inactive); in [17] it was 56 µM (inactive); in [18] it was > 100 µM (inactive). The GI50 in assay [19] and in assay [20] was > 100 µM (inactive) throughout.
